Experiments:
[1] = test system: Pectobacterium carotovorum SCC1; experiment: Inhibition of soft rot lesion in tobacco leaf; format: in vivo
[2] = test system: Pectobacterium carotovorum SCC1; experiment: Inhibition of soft rot lesion in cucumber leaf; format: in vivo
[3] = test system: cucumber leaf; experiment: Promotion of growth of cucumber leaf; details: Cucumis sativus, read-out: Width of leaf
Experimental: Plant leaves were tested with test compounds by drenching. […] 3-5 days later, the width of the leaves was measured again to compare the growth of the leaves relative to the control group.

[4] = 100 ppm, Table 5, control 73.75

SMILES | Area of lesion ([1]; 1 ppm, Table 5, control 73.75) | Area of lesion ([1]; 10 ppm, Table 5, control 73.75) | Area of lesion [1, 4] | Area of lesion ([2]; 1 ppm, Table 8, control 100) | Area of lesion ([2]; 10 ppm, Table 8, control 100) | Area of lesion ([2]; 100 ppm, Table 8, control 100) | other results
CC(O)C1NC(=O)C2CCCN2C1=O (centres unmarked) [Compound No. 56] | 7.5% | 10% | 10% | 5% | 80% | 70% | 
CCC(C)C1NC(=O)C2CCCN2C1=O (centres unmarked) [Compound No. 67] | 25% | 35% | 40% |  |  |  | 
CSCC[C@H]1NC(=O)[C@@H]2CCCN2C1=O [Compound No. 57] | 10% | 10% | 12.5% | 70% | 72.5% | 60% | 
CC(C)C[C@H]1NC(=O)[C@H]2CCCN2C1=O [Compound No. 61] | 10% | 10% | 17.5% | 5% | 70% | 75% | 
NC(=O)CC[C@H]1NC(=O)[C@@H]2CCCN2C1=O [Compound No. 59] | 12.5% | 32.5% | 47.5% | 30% | 32.5% | 80% | 
NC(=O)CC1NC(=O)C2CCCN2C1=O (centres unmarked) [Compound No. 68, 3-carbamoylmethylhexahydropyrrolo[1,2-a]pyrazin-1,4-dione] | 10% | 7.5% | 30% |  |  |  | 
CC1NC(=O)C(Cc2ccc(O)cc2)NC1=O (centres unmarked) [Compound No. 10, 3-methyl-6-(4-hydroxybenzyl)-2,5-diketopiperazine] |  |  |  |  |  |  | melting point: 276 to 280 °C (dec.)
CC(C)CC1NC(=O)C2CCCN2C1=O (centres unmarked) [Compound No. 27, 3-(2-methylpropyl)hexahydropyrrolo[1,2-a]pyrazin-1,4-dione] |  |  |  |  |  |  | response vs control in vivo at 1 ppm [3]: 111%; response vs control in vivo at 10 ppm [3]: 135%; response vs control in vivo at 100 ppm [3]: 129%
CC(C)CC1NC(=O)CNC1=O (centres unmarked) [Compound No. 2, 3-(2-methylpropyl)-2,5-diketopiperazine] |  |  |  |  |  |  | melting point: 241 to 244 °C; Area of lesion ([1]; 1 ppm, Table 3, control 87.5): 32.5%; Area of lesion ([1]; 10 ppm, Table 3, control 87.5): 40%; Area of lesion ([1]; 100 ppm, Table 3, control 87.5): 60%; Area of lesion ([2]; 1 ppm, Table 6, control 100): 92.5%; Area of lesion ([2]; 10 ppm, Table 6, control 100): 82.5%; Area of lesion ([2]; 100 ppm, Table 6, control 100): 50%
CC(O)C1NC(=O)C2CCCN2C1=O (centres unmarked) [Compound No. 33, 3-(1-hydroxyethyl)hexahydropyrrolo[1,2-a]pyrazin-1,4-dione] |  |  |  |  |  |  | response vs control in vivo at 1 ppm [3]: 109%; response vs control in vivo at 10 ppm [3]: 117%; response vs control in vivo at 100 ppm [3]: 110%
O=C1N[C@H](Cc2ccccc2)C(=O)N2CCC[C@@H]12 [Compound No. 58] | 35% | 25% | 7.5% | 75% | 57.5% | 80% | 
CC(C)CC1NC(=O)C(C(C)O)NC1=O (centres unmarked) [Compound No. 3, 3-(1-hydroxyethyl)-6-(2-methylpropyl)-2,5-diketopiperazine] |  |  |  |  |  |  | Area of lesion ([1]; 1 ppm, Table 3, control 87.5): 20%; Area of lesion ([1]; 10 ppm, Table 3, control 87.5): 10%; Area of lesion ([1]; 100 ppm, Table 3, control 87.5): 0%; Area of lesion ([2]; 1 ppm, Table 6, control 100): 45%; Area of lesion ([2]; 10 ppm, Table 6, control 100): 45%; Area of lesion ([2]; 100 ppm, Table 6, control 100): 42.5%
O=C1NC(Cc2ccccc2)C(=O)N2CCCC12 (centres unmarked) [Compound No. 24, 3-benzylhexahydropyrrolo[1,2-a]pyrazin-1,4-dione] |  |  |  |  |  |  | response vs control in vivo at 1 ppm [3]: 98.2%; response vs control in vivo at 10 ppm [3]: 104%; response vs control in vivo at 100 ppm [3]: 102%
CC(O)C1NC(=O)C2CCCN2C1=O (centres unmarked) [Compound No. 66] | 35% | 37.5% | 37.5% |  |  |  | 
